The text below walks through data of ChEMBL document CHEMBL1158709, “Cytotoxic flavanones of Schizolaena hystrix from the Madagascar rainforest” (J Nat Prod, 2005).

Converted amounts (≈) assume the structure as drawn.

In this experiment the test system is A2780. The experiment in a line: Cytotoxicity against human A2780 cells. It is filed as functional, cell-based.
Regarding `COc1ccc([C@@H]2CC(=O)c3c(cc(O)c(C/C=C(\C)CCC=C(C)C)c3O)O2)cc1`, inhibition was half-maximal at 17 µg/mL (≈ 40.2 µM) (IC50). The result for `CC(C)=CCC/C(C)=C/Cc1c(O)cc2c(c1O)C(=O)[C@H](O)[C@@H](c1ccc(O)cc1)O2` [BONANNIOL A] reads 25 µg/mL (≈ 58.9 µM); that for `CC(C)=CCC/C(C)=C/Cc1c(O)cc2c(c1O)C(=O)C[C@@H](c1ccc(O)cc1)O2` [BONANNIONE A], 12 µg/mL (≈ 29.4 µM); that for `CC(C)=CCC/C(C)=C/Cc1c(O)cc2c(c1O)C(=O)C[C@@H](c1ccc(O)c(O)c1)O2` [NYMPHAEOL A], 5.5 µg/mL (≈ 13 µM). The result for `CC(C)=CCC/C(C)=C/Cc1cc([C@@H]2CC(=O)c3c(cc(O)c(CC=C(C)C)c3O)O2)ccc1O` [SCHIZOLAENONE A] reads 10 µg/mL (≈ 21 µM).

Compound `CC(C)=CCC/C(C)=C/Cc1cc([C@@H]2CC(=O)c3c(cc(O)c(CC=C(C)C)c3O)O2)cc(O)c1O` [SCHIZOLAENONE B] showed an IC50 of 11 µg/mL (≈ 22.3 µM). To `CC(C)=CCc1cc([C@@H]2CC(=O)c3c(cc(O)c(CC=C(C)C)c3O)O2)ccc1O` [MACARANGAFLAVANONE B] belongs 16 µg/mL (≈ 39.2 µM).
